Experimental data: ChEMBL document CHEMBL3885881, “DrugMatrix”

Species: Rattus norvegicus
Experiment: DrugMatrix - Regimen: Daily Repeat
Assay type: toxicity, organism-based, Sprague-Dawley
Parameters: regimen Daily Repeat, gender Male, age 6-8 weeks
Details: in vivo, po, route oral GAVAGE, vehicle 100 % WATER; for ABSOLUTE BASOPHIL / ABSOLUTE EOSINOPHIL / ABSOLUTE LYMPHOCYTE / ABSOLUTE MONOCYTE / ABSOLUTE SEGMENTED NEUTROPHIL / BASOPHIL / EOSINOPHIL / ERYTHROCYTE COUNT / HEMATOCRIT / HEMOGLOBIN / LEUKOCYTE COUNT / LYMPHOCYTE / MEAN CORPUSCULAR HEMOGLOBIN / MEAN CORPUSCULAR HEMOGLOBIN CONCENTRATION / MEAN CORPUSCULAR VOLUME / MONOCYTE / NEUTROPHIL / NUCLEATED RED BLOOD CELLS / PLATELET COUNT: tissue Blood; for ALANINE AMINOTRANSFERASE / ALBUMIN / ALKALINE PHOSPHATASE / ASPARTATE AMINOTRANSFERASE / BLOOD UREA NITROGEN / CARBON DIOXIDE / CHLORIDE / CHOLESTEROL / CREATINE PHOSPHOKINASE / CREATININE / GLUCOSE / LACTATE DEHYDROGENASE / LIPASE / PHOSPHORUS / POTASSIUM / SODIUM / TOTAL BILIRUBIN / TOTAL PROTEIN / URIC ACID: tissue Plasma
[1] = 0 mg/kg, 72 h, dose level Control, time 3 day
[2] = 0 mg/kg, 120 h, dose level Control, time 5 day
[3] = 19.5 mg/kg, 72 h, dose level Low, time 3 day

CN1CCC[C@H]1c1cccnc1 [NICOTINE]
ABSOLUTE BASOPHIL [1]: 0 CELLS/uL
ABSOLUTE EOSINOPHIL [1]: 0 CELLS/uL
ABSOLUTE LYMPHOCYTE [1]: 10386.33 CELLS/uL
ABSOLUTE MONOCYTE [1]: 88.5 CELLS/uL
ABSOLUTE SEGMENTED NEUTROPHIL [1]: 1008.5 CELLS/uL
BASOPHIL [1]: 0%
EOSINOPHIL [1]: 0%
ERYTHROCYTE COUNT [1]: 5.16 x10E6/uL
HEMATOCRIT [1]: 32.43%
HEMOGLOBIN [1]: 12.98 G/DL
LEUKOCYTE COUNT [1]: 11.48 x10E3/uL
LYMPHOCYTE [1]: 92.33%
MEAN CORPUSCULAR HEMOGLOBIN [1]: 25.23 pg
MEAN CORPUSCULAR HEMOGLOBIN CONCENTRATION [1]: 40.08 G/DL
MEAN CORPUSCULAR VOLUME [1]: 62.95 fL
MONOCYTE [1]: 0.67%
NEUTROPHIL [1]: 7%
NUCLEATED RED BLOOD CELLS [1]: 0 /100WBC
PLATELET COUNT [1]: 1016.67 x10E3/uL
ALANINE AMINOTRANSFERASE [1]: 62.17 u/L
ALBUMIN [1]: 3.95 G/DL
ALKALINE PHOSPHATASE [1]: 363.5 u/L
ASPARTATE AMINOTRANSFERASE [1]: 118 u/L
BLOOD UREA NITROGEN [1]: 14.5 mg/dL
CARBON DIOXIDE [1]: 22.83 mmol/L
CHLORIDE [1]: 100.67 MEQ/L
CHOLESTEROL [1]: 66 mg/dL
CREATINE PHOSPHOKINASE [1]: 1308.83 u/L
CREATININE [1]: 0.22 mg/dL
GLUCOSE [1]: 187.5 mg/dL
LACTATE DEHYDROGENASE [1]: 380.17 u/L
LIPASE [1]: 16.17 u/L
PHOSPHORUS [1]: 14.27 mg/dL
POTASSIUM [1]: 6.8 MEQ/L
SODIUM [1]: 142.53 MEQ/L
TOTAL BILIRUBIN [1]: 0.2 mg/dL
TOTAL PROTEIN [1]: 5.68 G/DL
URIC ACID [1]: 2.87 mg/dL
ABSOLUTE BASOPHIL [2]: 0 CELLS/uL
ABSOLUTE EOSINOPHIL [2]: 80 CELLS/uL
ABSOLUTE LYMPHOCYTE [2]: 13301.33 CELLS/uL
ABSOLUTE MONOCYTE [2]: 180.83 CELLS/uL
ABSOLUTE SEGMENTED NEUTROPHIL [2]: 1187.83 CELLS/uL
BASOPHIL [2]: 0%
EOSINOPHIL [2]: 0.5%
ERYTHROCYTE COUNT [2]: 5.54 x10E6/uL
HEMATOCRIT [2]: 35.65%
HEMOGLOBIN [2]: 14.22 G/DL
LEUKOCYTE COUNT [2]: 14.75 x10E3/uL
LYMPHOCYTE [2]: 90.67%
MEAN CORPUSCULAR HEMOGLOBIN [2]: 25.65 pg
MEAN CORPUSCULAR HEMOGLOBIN CONCENTRATION [2]: 39.88 G/DL
MEAN CORPUSCULAR VOLUME [2]: 64.35 fL
MONOCYTE [2]: 1%
NEUTROPHIL [2]: 7.83%
NUCLEATED RED BLOOD CELLS [2]: 0.17 /100WBC
PLATELET COUNT [2]: 1285.33 x10E3/uL
ALANINE AMINOTRANSFERASE [2]: 51.67 u/L
ALBUMIN [2]: 4.08 G/DL
ALKALINE PHOSPHATASE [2]: 391.5 u/L
ASPARTATE AMINOTRANSFERASE [2]: 99.5 u/L
BLOOD UREA NITROGEN [2]: 15.5 mg/dL
CARBON DIOXIDE [2]: 28.33 mmol/L
CHLORIDE [2]: 101.83 MEQ/L
CHOLESTEROL [2]: 67.83 mg/dL
CREATINE PHOSPHOKINASE [2]: 771.33 u/L
CREATININE [2]: 0.23 mg/dL
GLUCOSE [2]: 156.5 mg/dL
LACTATE DEHYDROGENASE [2]: 544.33 u/L
LIPASE [2]: 10.17 u/L
PHOSPHORUS [2]: 12.03 mg/dL
POTASSIUM [2]: 6.81 MEQ/L
SODIUM [2]: 144.13 MEQ/L
TOTAL BILIRUBIN [2]: 0.22 mg/dL
TOTAL PROTEIN [2]: 6 G/DL
URIC ACID [2]: 2.18 mg/dL
ABSOLUTE BASOPHIL [3]: 0 CELLS/uL
ABSOLUTE EOSINOPHIL [3]: 274 CELLS/uL
ABSOLUTE LYMPHOCYTE [3]: 12164.33 CELLS/uL
ABSOLUTE MONOCYTE [3]: 176.67 CELLS/uL
ABSOLUTE SEGMENTED NEUTROPHIL [3]: 1085 CELLS/uL
BASOPHIL [3]: 0%
EOSINOPHIL [3]: 2%
ERYTHROCYTE COUNT [3]: 5.66 x10E6/uL
HEMATOCRIT [3]: 36.1%
HEMOGLOBIN [3]: 14.13 G/DL
LEUKOCYTE COUNT [3]: 13.7 x10E3/uL
LYMPHOCYTE [3]: 88.67%
MEAN CORPUSCULAR HEMOGLOBIN [3]: 24.97 pg
MEAN CORPUSCULAR HEMOGLOBIN CONCENTRATION [3]: 39.17 G/DL
MEAN CORPUSCULAR VOLUME [3]: 63.73 fL
MONOCYTE [3]: 1.33%
NEUTROPHIL [3]: 8%
NUCLEATED RED BLOOD CELLS [3]: 0 /100WBC
PLATELET COUNT [3]: 1341.67 x10E3/uL
ALANINE AMINOTRANSFERASE [3]: 53.67 u/L
ALBUMIN [3]: 4.07 G/DL
ALKALINE PHOSPHATASE [3]: 372.67 u/L
ASPARTATE AMINOTRANSFERASE [3]: 86.33 u/L
BLOOD UREA NITROGEN [3]: 14 mg/dL
CARBON DIOXIDE [3]: 22 mmol/L
CHLORIDE [3]: 103 MEQ/L
CHOLESTEROL [3]: 69 mg/dL
CREATINE PHOSPHOKINASE [3]: 441.67 u/L
CREATININE [3]: 0.28 mg/dL
GLUCOSE [3]: 182.33 mg/dL
LACTATE DEHYDROGENASE [3]: 226.33 u/L
LIPASE [3]: 10.67 u/L
PHOSPHORUS [3]: 12.5 mg/dL
POTASSIUM [3]: 5.92 MEQ/L
SODIUM [3]: 144.87 MEQ/L
TOTAL BILIRUBIN [3]: 0.2 mg/dL
TOTAL PROTEIN [3]: 5.77 G/DL
URIC ACID [3]: 1.67 mg/dL
